Patent publication US10308686B2, “Gamma-AApeptides with potent and broad-spectrum antimicrobial activity” (priority 2012, dated 2019)
≈ marks a conversion by molar mass, not a printed value. Like-named read-outs stand apart in the source and are kept apart here.

Experiments:
[1] = tested on: human red blood cells (hRBC's); assay: Hemolysis assay; assay type: cell-based; details: for Hemolysis HC10 / Hemolysis HC50: red cells of human
Procedure: Freshly drawn human red blood cells (hRBC's) with additive K2 EDTA (spray-dried) were washed with PBS buffer several times and centrifuged at 1000 g for 10 min until a clear supernatant was observed. The hRBC's were resuspended in 1×PBS to get a 5% v/v suspension. Two-fold serial dilutions of γ-AApeptides dissolved in 1×PBS from 250 μg/ml through 1.6 μg/ml were added to a sterile 96-well plate to make up a total volume of 50 μL in each well. Then 50 μL of 5% v/v hRBC solution was added to make up a total volume of 100 μL in each well. The 0% hemolysis point and 100% hemolysis point were determined in 1×PBS and 0.2% Triton-X-100, respectively (Patch et al., 2003). The plate was then incubated at 37° C. for 1 h and centrifuged at 3500 rpm for 10 min. The supernatant (30 μL) was diluted with 100 μL of 1×PBS and absorption was detected by measuring the optical density at 360 nm by Biotek Synergy HT microtiter plate reader. % hemolysis was determined by the following equation: % hemolysis=(Abssample−AbsPBS)/(AbsTriton−AbsPBS)×100 H50 is the concentration of γ-AApeptide amphiphiles at which 50% hemolysis was observed. The highest concentration tested in the hemolytic assay was 500 μg/ml. 7. Fluorescence Microscopy
The sequences shown in FIG. 12 were also evaluated via hemolytic assays. Freshly drawn human red blood cells (hRBC's) with additive K2 EDTA (spray-dried) were washed with PBS buffer several times and centrifuged at 1000 g for 10 min until a clear supernatant was observed. The hRBC's were resuspended in 1×PBS to get a 5% v/v suspension. Two-fold serial dilutions of lipidated γ-AApeptides dissolved in 1×PBS from 1 mg/ml through 6.3 μg/ml were added to sterile 96-well plates to make up a total volume of 50 μL in each well. Then 50 μL of 5% v/v hRBC solution was added to make up a total volume of 100 μL in each well. The 0% hemolysis point and 100% hemolysis point were determined in 1×PBS and 0.2% Triton-X-100, respectively (Patch et al., 2003). The plate was then incubated at 37° C. for 1 h and centrifuged at 3500 rpm for 10 min. The supernatant (30 μL) was diluted with 100 μL of 1×PBS and absorption was detected by measuring the optical density at 360 nm with a Biotek Synergy HT microtiter plate reader. % hemolysis was determined by the following equation: % hemolysis=(Abs sample−Abs PBS)/(Abs Triton−Abs PBS)×100

[2] = tested on: K. pneumoniae (ATCC 13383)
[3] = tested on: multi-drug resistant P. aeruginosa ATCC 27853
[4] = tested on: multi-drug resistant S. epidermidis (RP62A); details: for MIC, Gram positive S. epidermidis: Table 7
[5] = tested on: vancomycin-resistant E. faecalis (ATCC 700802); details: for MIC, Gram positive E. faecalis: Table 7
[6] = tested on: methicillin-resistant S. aureus (ATCC 33592); details: for MIC, Gram positive S. aureus: Table 7
[7] = tested on: methicillin-resistant S. aureus (MRSA, USA100 lineage); details: USA100

Row | SMILES | MIC, E. coli (E. coli (JM109)) | MIC, K. pneumoniae (causing pneumonia) [2] | MIC, B. subtilis (B. subtilis (BR151)) | MIC, Fungi C. albicans (C. albicans (ATCC 10231); ATCC 10231, 48 h) | Hemolysis (H50) [1] | MIC, P. aeruginosa ([3]; ATCC 27853) | MIC, S. epidermidis (multi-drug resistant) ([4]; Table 3) | MIC, E. faecalis (vancomycin-resistant) ([5]; Table 3) | MIC, S. aureus (methicillin-resistant) ([6]; Table 3) | MIC, Fungi C. albicans (C. albicans (ATCC 10231); ATCC 10231) | also measured
1 | CCCCCCCC/C=C\CCCCCCCC(=O)N[C@@H](CCCCN)CN(CC(=O)N[C@@H](CCCCN)CN(CC(N)=O)C(=O)CCCN)C(=O)CCCN [Sequence 12] |  |  |  |  |  |  |  |  |  |  | Hemolysis HC10 [1]: 250 µg/mL; Hemolysis HC50 [1]: > 500 µg/mL; MIC, Gram negative E. coli (E. coli (JM109)): 10 µg/mL (≈ 12.6 µM); MIC, Gram negative K. pneumoniae [2]: 15 µg/mL (≈ 18.9 µM); MIC, Gram negative P. aeruginosa ([3]; ATCC 27853): 3 µg/mL (≈ 3.78 µM); MIC, Gram positive B. subtilis (B. subtilis (BR151)): 2.5 µg/mL (≈ 3.15 µM); MIC, Gram positive S. epidermidis [4]: 4 µg/mL (≈ 5.04 µM); MIC, Gram positive E. faecalis [5]: 5 µg/mL (≈ 6.3 µM); MIC, Gram positive S. aureus [6]: 5 µg/mL (≈ 6.3 µM); MIC, Fungi, C. albicans (C. albicans (ATCC 10231); ATCC 10231): 2 µg/mL (≈ 2.52 µM)
2 | CCCCCCCC/C=C\CCCCCCCC(=O)N[C@@H](C)CN(CC(=O)N[C@@H](C)CN(CC(=O)N[C@@H](CC(C)C)CN(CC(=O)N[C@@H](CC(C)C)CN(CC(=O)N[C@@H](CC(C)C)CN(CC(N)=O)C(=O)CCCN)C(=O)CCCN)C(=O)CCCN)C(C)=O)C(C)=O [Sequence 13] |  |  |  |  |  |  |  |  |  |  | Hemolysis HC10 [1]: 100 µg/mL; Hemolysis HC50 [1]: > 500 µg/mL; MIC, Gram negative E. coli (E. coli (JM109)): 3 µg/mL (≈ 2.28 µM); MIC, Gram negative K. pneumoniae [2]: 3 µg/mL (≈ 2.28 µM); MIC, Gram negative P. aeruginosa ([3]; ATCC 27853): 3 µg/mL (≈ 2.28 µM); MIC, Gram positive B. subtilis (B. subtilis (BR151)): 3 µg/mL (≈ 2.28 µM); MIC, Gram positive S. epidermidis [4]: 3 µg/mL (≈ 2.28 µM); MIC, Gram positive E. faecalis [5]: 4 µg/mL (≈ 3.04 µM); MIC, Gram positive S. aureus [6]: 3 µg/mL (≈ 2.28 µM); MIC, Fungi, C. albicans (C. albicans (ATCC 10231); ATCC 10231): 3 µg/mL (≈ 2.28 µM)
3 | NCCCC[C@@H](C(N)=O)N(CCNC(=O)[C@H](CCCCN)N(CCNC(=O)[C@H](CCCCN)N(CCNC(=O)[C@H](CCCCN)N(CCNC(=O)[C@H](CCCCN)N(CCNC(=O)[C@H](CCCCN)N(CCNC(=O)[C@H](CCCCN)N(CCN)C(=O)CCc1ccccc1)C(=O)CCc1ccccc1)C(=O)CCc1ccccc1)C(=O)CCc1ccccc1)C(=O)CCc1ccccc1)C(=O)CCc1ccccc1)C(=O)CCc1ccccc1 [α1, reference compound] | 4.5 µg/mL (≈ 2.1 µM) | >100 µg/mL | 2 µg/mL (≈ 0.934 µM) | 20 to 30 µg/mL |  |  |  |  |  |  | Hemolysis (H50) ([1]; Table 1, concentration at which 50% hemolysis was observed): >500 µg/mL; MIC, S. epidermidis (multi-drug resistant) ([4]; multi-drug resistant (RP62A)): 10 µg/mL (≈ 4.67 µM); MIC, E. faecalis (vancomycin-resistant) ([5]; ATCC 700802): 75 µg/mL (≈ 35 µM); MIC, S. aureus (methicillin-resistant) ([6]; ATCC 33592): 75 µg/mL (≈ 35 µM); MIC, MRSA USA100 (leading hospital-associated strain) [7]: >100 µg/mL; MIC, B. anthracis (lethal bioweapon) (B. anthracis): >100 µg/mL
4 | NCCCC[C@H](N)CN(CC(=O)N[C@@H](CCCCN)CN(CC(=O)N[C@@H](CCCCN)CN(CC(=O)N[C@@H](CCCCN)CN(CC(=O)N[C@@H](CCCCN)CN(CC(=O)N[C@@H](CCCCN)CN(CC(=O)N[C@@H](CCCCN)CN(CC(N)=O)C(=O)CCc1ccccc1)C(=O)CCc1ccccc1)C(=O)CCc1ccccc1)C(=O)CCc1ccccc1)C(=O)CCc1ccccc1)C(=O)CCc1ccccc1)C(=O)CCc1ccccc1 [γ3] | 2.5 to 5 µg/mL | >100 µg/mL | 2.5 µg/mL (≈ 1.17 µM) | 12.5 to 25 µg/mL | >500 µg/mL |  |  |  |  |  | MIC, S. epidermidis (multi-drug resistant) ([4]; Table 1): 6.25 to 12.5 µg/mL; MIC, E. faecalis (vancomycin-resistant) ([5]; Table 1): 12.5 to 25 µg/mL; MIC, S. aureus (methicillin-resistant) ([6]; Table 1): 12.5 to 25 µg/mL; MIC, B. anthracis (lethal bioweapon) (B. anthracis; Table 1): 25 to 50 µg/mL
5 | CC(C)C[C@@H](CN(CC(=O)N[C@@H](CCCCN)CN(CC(=O)N[C@@H](CCCCN)CN(CC(=O)N[C@@H](CCCCN)CN(CC(N)=O)C(=O)CCc1ccccc1)C(=O)CCc1ccccc1)C(=O)CCc1ccccc1)C(=O)CCc1ccccc1)NC(=O)CN(C[C@H](CCCCN)NC(=O)CN(C[C@H](CCCCN)NC(=O)CN(C[C@@H](N)CCCCN)C(=O)CCc1ccccc1)C(=O)CCc1ccccc1)C(=O)CCc1ccccc1 [γ4] | 2.5 to 5 µg/mL |  | 2.5 µg/mL (≈ 1.18 µM) | 12.5 to 25 µg/mL | >500 µg/mL |  |  |  |  |  | MIC, S. epidermidis (multi-drug resistant) ([4]; Table 1): 3.1 to 6.25 µg/mL; MIC, E. faecalis (vancomycin-resistant) ([5]; Table 1): 12.5 to 25 µg/mL; MIC, S. aureus (methicillin-resistant) ([6]; Table 1): 3.1 to 6.25 µg/mL; MIC, B. anthracis (lethal bioweapon) (B. anthracis; Table 1): 25 to 50 µg/mL
6 | CCCCCCCCCCCCCCCC(=O)N[C@@H](C)CN(CC(=O)N[C@@H](CCCCN)CN(CC(=O)N[C@@H](Cc1ccccc1)CN(CC(=O)N[C@@H](Cc1ccccc1)CN(CC(N)=O)C(=O)CCc1c[nH]cn1)C(=O)CCc1c[nH]cn1)C(=O)CCCN)C(C)=O [γAA3] | 1.6 to 3.1 µg/mL | 12.5 to 25 µg/mL | 1.6 to 3.1 µg/mL |  | 150 µg/mL | 3 to 6 µg/mL | 1.6 to 3.1 µg/mL | 1.6 to 3.1 µg/mL | 1.6 to 3.1 µg/mL | 1.6 to 3.1 µg/mL | 
7 | CC(C)CCC(=O)N1CC(=O)N[C@@H](Cc2ccccc2)CN(C(=O)CCC(C)C)CC(=O)N[C@@H](CCCCN)CN(C(=O)CCc2ccccc2)CC(=O)N[C@@H](CCCCN)CN(C(=O)CCc2ccccc2)CC(=O)N[C@@H](CCCCN)CN(C(=O)CCc2ccccc2)CC(=O)N[C@@H](CCCCN)CN(C(=O)CCc2ccccc2)CC(=O)N[C@@H](Cc2ccccc2)CN(CC(N)=O)C(=O)CCC(=O)N[C@@H](Cc2ccccc2)C1 [γAA5] | 12.5 to 25 µg/mL | 8 µg/mL (≈ 3.85 µM) | 1 µg/mL (≈ 0.481 µM) |  | 100 µg/mL | 8 µg/mL (≈ 3.85 µM) | 2 µg/mL (≈ 0.962 µM) | 5 µg/mL (≈ 2.4 µM) | 1 µg/mL (≈ 0.481 µM) | 2 µg/mL (≈ 0.962 µM) | 
8 | CC(C)CCC(=O)N1CC(=O)N[C@@H](Cc2ccccc2)CN(C(=O)CCC(C)C)CC(=O)N[C@@H](Cc2ccccc2)CN(C(=O)CCC(C)C)CC(=O)N[C@@H](CCCCN)CN(C(=O)CCc2ccccc2)CC(=O)N[C@@H](CCCCN)CN(C(=O)CCc2ccccc2)CC(=O)N[C@@H](CCCCN)CN(C(=O)CCc2ccccc2)CC(=O)N[C@@H](Cc2ccccc2)CN(CC(N)=O)C(=O)CCC(=O)N[C@@H](Cc2ccccc2)C1 [γAA6] | 25 to 50 µg/mL | 10 µg/mL (≈ 4.84 µM) | 2 µg/mL (≈ 0.969 µM) |  | 300 µg/mL |  | 2 µg/mL (≈ 0.969 µM) | 5 µg/mL (≈ 2.42 µM) | 3 µg/mL (≈ 1.45 µM) | 4 µg/mL (≈ 1.94 µM) | MIC, P. aeruginosa ([3]; Table 3): 10 µg/mL (≈ 4.84 µM)
9 | CCCCCCCC/C=C\CCCCCCCC(=O)N[C@@H](CCCCN)CN(CC(N)=O)C(=O)CCCN [γAA7] | 2.5 µg/mL (≈ 4.65 µM) | 50 µg/mL (≈ 93 µM) | 2 µg/mL (≈ 3.72 µM) |  | >500 µg/mL | 2.5 µg/mL (≈ 4.65 µM) | 1 µg/mL (≈ 1.86 µM) | 2.5 µg/mL (≈ 4.65 µM) | 5 µg/mL (≈ 9.3 µM) | 1.5 µg/mL (≈ 2.79 µM) | 
